Patent US7125871B2, “Excitatory amino acid receptor modulators” (Eli Lilly and Company, priority 2000, dated 2006)

Target: T1, mGluR2 (Homo sapiens, UniProt Q14416)
T1 construct: expressed in transfected cells
Test: reversal of [3H] LY341495 binding at mGluR2
Details: [3H] LY341495 radioligand; cells expressing human mGluR subtypes
Protocol: (D. D. Schoepp, et al., Neuropharmacol., 1996, 35, 1661–1672 and 1997, 36, 111).
LY341495 binding with a Ki of less than 30,000 nM at […]. […] (LY341495 is described in Ornstein et al., J. Med. Chem., 1998, 41, 346–357 and J. Med. Chem., 1998, 41, 358 to 378).

T1 sequence (Q14416 19-872): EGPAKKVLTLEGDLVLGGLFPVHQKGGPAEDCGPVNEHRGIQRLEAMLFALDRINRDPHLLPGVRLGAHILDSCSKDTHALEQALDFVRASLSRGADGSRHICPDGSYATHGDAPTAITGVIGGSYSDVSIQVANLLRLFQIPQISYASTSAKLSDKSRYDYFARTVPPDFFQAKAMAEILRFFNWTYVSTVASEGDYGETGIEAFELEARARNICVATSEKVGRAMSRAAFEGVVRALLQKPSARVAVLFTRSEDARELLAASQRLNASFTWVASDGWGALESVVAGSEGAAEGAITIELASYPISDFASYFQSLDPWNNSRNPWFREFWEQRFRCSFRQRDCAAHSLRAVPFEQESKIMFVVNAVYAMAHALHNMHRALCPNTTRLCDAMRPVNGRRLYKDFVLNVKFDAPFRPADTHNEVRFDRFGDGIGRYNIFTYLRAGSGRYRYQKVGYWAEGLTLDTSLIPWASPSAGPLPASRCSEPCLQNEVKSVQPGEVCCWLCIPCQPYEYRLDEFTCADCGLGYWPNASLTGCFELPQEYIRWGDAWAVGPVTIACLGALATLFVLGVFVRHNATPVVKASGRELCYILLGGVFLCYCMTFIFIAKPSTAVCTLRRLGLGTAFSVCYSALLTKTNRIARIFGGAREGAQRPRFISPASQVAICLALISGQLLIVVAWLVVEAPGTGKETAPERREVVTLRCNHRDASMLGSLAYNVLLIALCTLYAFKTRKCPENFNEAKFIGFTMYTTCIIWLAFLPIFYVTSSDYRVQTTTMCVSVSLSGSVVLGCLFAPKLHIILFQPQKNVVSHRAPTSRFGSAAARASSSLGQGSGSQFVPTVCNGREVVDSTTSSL

In the case of `N[C@H](C(=O)O)[C@@H]1[C@@H](C(=O)O)[C@@H]1C(=O)NCc1ccccc1` (racemic) [Example 1, (2SR, 1′SR, 2′RS, 3′RS)-2-[2′-carboxy-3′-(phenylmethylaminocarbonyl)cyclopropyl]glycine], the Ki is reported as 3.42 µM.
